From publication PMC8330735 (Journal of Enzyme Inhibition and Medicinal Chemistry, 2021)
Read-outs that look alike come from different tables or passages of the source.

Columns and labels:
[1] = test system: carrageenan-induced rat paw oedema; test: Carrageenan-induced rat paw oedema test; assay type: in vivo; settings: compounds and celecoxib 50 mg/kg, ibuprofen and indomethacin 20 mg/kg; for Mean oedema thickness 1h: 1 h after carrageenan; for Mean oedema thickness 1h / Mean oedema thickness 2h / Mean oedema thickness 3h / Mean oedema thickness 4h / Mean oedema thickness 5h / Mean oedema thickness 24h / Mean oedema thickness 0h: mean ± SEM, n = 5; for Mean oedema thickness 2h: 2 h after carrageenan; for Mean oedema thickness 3h: 3 h after carrageenan; for Mean oedema thickness 4h: 4 h after carrageenan; for Mean oedema thickness 5h: 5 h after carrageenan; for Mean oedema thickness 24h: 24 h after carrageenan; for Mean oedema thickness 0h: before carrageenan (0 h); for Average oedema inhibition%: from area under the curve of all time points
Procedure: The rats were divided into nine groups (n = 5/group). All tested compounds were suspended in 1% Tween-80. Group 1, controls, were given the vehicle (1% Tween80, 10 ml/kg). […] The rats were given the drugs 1 h before the injection of carrageenan solution (1% in 0.9% NaCl, 0.1 ml) (Sigma Aldrich, USA) in the sub-planter tissue of the right hind paw. The paw thickness (mm) was measured using a calliper before (0 h) and after carrageenan injection at 1, 2, 3, 4, 5 and 24 h. The inhibition of oedema thickness was calculated using the following formula (control– drug/control) × 100.

[2] = test system: NO production in LPS-activated RAW 264.7 macrophages; test: NO production in LPS-activated RAW 264.7 macrophages (DAF-FM); assay type: cell-based; settings: Mus musculus, RAW264.7; LPS 1 µg/mL activated RAW 264.7
Procedure: HCA7 colorectal cancer cell line was obtained from Sigma. […] Louis, MO) containing 10% heat-inactivated foetal bovine serum (HI-FBS) (Gibco, USA), 100 μg/mL streptomycin (Invitrogen, USA), and […] penicillin (Invitrogen, USA)[40]. HCA7 and RAW 264.7 cells were cultured in Dulbecco's minimal essential media (DMEM, Invitrogen) containing 10% HI-FBS, sodium pyruvate (1 mM), penicillin ([…]), and streptomycin (100 mg/m)[41]^,[42]. […] Molecular Probes, USA). Briefly, RAW 264.7 cells were cultured in black 96-well plates (200,000 cells/mL, 100 µl/well) for 24 h. […] The fluorescence intensity, which is directly proportional to NO levels, was quantified, as detailed in our previous study. IC50 values were calculated from the dose–response curves.

[3] = test system: ROS production in LPS-activated RAW 264.7 macrophages; test: ROS production in LPS-activated RAW 264.7 macrophages (DCFH-DA); assay type: cell-based; settings: Mus musculus, RAW264.7; LPS 1 µg/mL activated RAW 264.7
Procedure: HCA7 colorectal cancer cell line was obtained from Sigma. […] Louis, MO) containing 10% heat-inactivated foetal bovine serum (HI-FBS) (Gibco, USA), 100 μg/mL streptomycin (Invitrogen, USA), and […] penicillin (Invitrogen, USA)[40]. HCA7 and RAW 264.7 cells were cultured in Dulbecco's minimal essential media (DMEM, Invitrogen) containing 10% HI-FBS, sodium pyruvate (1 mM), penicillin ([…]), and streptomycin (100 mg/m)[41]^,[42]. […] The cells were cultured, incubated with the different test compounds, and activated with LPS (1 µg/mL) as detailed above. […] IC50 values were calculated from the dose–response curves.

[4] = test system: HCT116 cells; test: MTS cell viability assay HCT116; assay type: cell-based; settings: Homo sapiens, HCT-116, 48 h, cell line scarcely expressing COX-2
Procedure: (§1) Human colorectal cancer cell lines, HCT116 and HT29, and RAW 264.7 macrophages were obtained from ATCC (Manassas, VA). HCA7 colorectal cancer cell line was obtained from Sigma. HT29 and HCT116 cells were cultured in McCoy's 5 A medium (Sigma Aldrich, St. Louis, MO) containing 10% heat-inactivated foetal bovine serum (HI-FBS) (Gibco, USA), 100 μg/mL streptomycin (Invitrogen, USA), and […] penicillin (Invitrogen, USA)[40]. HCA7 and RAW 264.7 cells were cultured in Dulbecco's minimal essential media (DMEM, Invitrogen) containing 10% HI-FBS, sodium pyruvate (1 mM), penicillin ([…]), and streptomycin (100 mg/m)[41]^,[42].
(§2) Cells were cultured in 96‐well plates for 48 h and then treated with serum-free media containing different concentrations of the tested compounds (12.5, 25, 50, 100 and 150 µM). After 48 h., MTS reagent (Promega) was added as directed by the manufacturer, and then, the absorbance was measured at 495 nm. The absorbance is proportional to the number of viable cells. IC50 was calculated from the dose-response curves as described previously[45] using GraphPad Prism 8 software (GraphPad Software, San Diego, CA).

[5] = test system: HT29 cells; test: MTS cell viability assay HT29; assay type: cell-based; settings: Homo sapiens, HT-29, 48 h, cell line moderately expressing COX-2
Procedure: as §1, §2

[6] = test system: HCA7 cells; test: MTS cell viability assay HCA7; assay type: cell-based; settings: Homo sapiens, HCA-7, 48 h, cell line highly expressing COX-2
Procedure: as §1, §2

[7] = test system: stomach ulceration in rats; test: Gastric acute ulcerogenic activity; settings: rat, n = 5; for Ulcer Index (UI): UI = UN + US + UP×10^−1
Procedure: (§3) The rats from the previous experiment were fasted for 12 h., followed by the administration of additional doses of the selected compounds or the two references for two consecutive days. Six hrs after the last treatment, the animals were sacrificed, and their stomachs were removed, washed with saline solution (0.9%) and examined for ulceration using a magnifying lens. The ulcer scores were estimated according to the method prescribed by Kulkarni and as detailed in our previous studies[36–38]. The following scores were individually assigned to each lesion: normal coloured stomach, 0; red colouration, 0.5; spot ulcers, 1; haemorrhagic streaks, 1.5; ulcer >3 but <5 mm, 2; and ulcers >5 mm, 3.

[8] = target: T1, ovine COX-1 (Ovis aries, UniProt P05979); test: In vitro COX-1 inhibitory assay (colorimetric Cayman kit)
T1 sequence (P05979 25-600): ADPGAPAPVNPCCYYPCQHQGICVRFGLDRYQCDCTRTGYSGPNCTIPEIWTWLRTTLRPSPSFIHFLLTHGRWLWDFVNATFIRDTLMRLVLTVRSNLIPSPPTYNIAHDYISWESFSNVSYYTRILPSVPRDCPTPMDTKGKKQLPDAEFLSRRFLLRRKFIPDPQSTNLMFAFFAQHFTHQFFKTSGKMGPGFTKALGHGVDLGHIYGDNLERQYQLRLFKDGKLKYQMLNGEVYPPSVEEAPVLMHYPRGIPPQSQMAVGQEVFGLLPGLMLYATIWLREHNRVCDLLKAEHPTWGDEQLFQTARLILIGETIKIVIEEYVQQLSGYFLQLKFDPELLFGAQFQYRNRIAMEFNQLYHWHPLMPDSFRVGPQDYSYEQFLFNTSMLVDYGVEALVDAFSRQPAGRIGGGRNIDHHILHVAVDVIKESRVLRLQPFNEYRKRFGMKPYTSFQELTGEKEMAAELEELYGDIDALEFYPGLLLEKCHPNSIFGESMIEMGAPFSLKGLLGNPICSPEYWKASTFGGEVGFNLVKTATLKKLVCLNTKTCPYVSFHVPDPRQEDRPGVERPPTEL
Procedure: (§4) All the newly synthesised compounds were tested for their ability to inhibit COX-1 and COX-2 enzymes using a screening assay method.

[9] = target: T2, human recombinant COX-2 (Homo sapiens, UniProt P35354); test: In vitro COX-2 inhibitory assay (colorimetric Cayman kit); settings: for Selectivity Index (SI): COX-1 IC50/COX-2 IC50
T2 sequence (P35354 18-604): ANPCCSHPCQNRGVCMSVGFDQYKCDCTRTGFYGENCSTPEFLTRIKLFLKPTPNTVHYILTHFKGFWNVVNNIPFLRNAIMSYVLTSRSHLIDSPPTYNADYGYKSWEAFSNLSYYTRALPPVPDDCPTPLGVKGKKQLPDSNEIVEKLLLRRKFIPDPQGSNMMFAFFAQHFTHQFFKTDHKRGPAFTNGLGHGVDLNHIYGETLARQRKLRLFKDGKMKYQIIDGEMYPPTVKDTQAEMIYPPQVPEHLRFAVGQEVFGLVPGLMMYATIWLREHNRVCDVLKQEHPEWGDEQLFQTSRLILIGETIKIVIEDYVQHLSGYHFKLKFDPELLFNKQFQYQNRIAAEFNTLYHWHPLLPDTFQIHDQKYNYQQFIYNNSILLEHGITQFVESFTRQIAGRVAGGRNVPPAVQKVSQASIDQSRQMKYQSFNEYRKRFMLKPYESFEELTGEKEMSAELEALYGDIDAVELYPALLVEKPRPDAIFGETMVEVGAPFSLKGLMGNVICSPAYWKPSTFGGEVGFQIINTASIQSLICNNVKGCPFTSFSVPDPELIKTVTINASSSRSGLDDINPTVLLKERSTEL
Procedure: as §4

[10] = test system: acetic acid-induced writhing in mice; test: Acetic acid induced writhing test; assay type: in vivo; settings: 50 mg/kg p.o., 1 h prior acetic acid i.p., within 30 min
Procedure: The number of writhes, manifested as extension of hind legs, constriction of abdomen, or turning of trunk was recorded within 30 min.

[11] = test system: stomach ulceration in rats; settings: rat, in vivo, 2 days
Procedure: as §3

IC50 [2] [µM] | IC50 [3] [µM] | IC50 [4] [µM] | IC50 [5] [µM] | IC50 [8] [µM] | IC50 [9] [µM] | Selectivity Index (SI) [9] | melting point [°C] | SMILES | Mean oedema thickness 1h [1] [mm] | Mean oedema thickness 2h [1] [mm] | Mean oedema thickness 3h [1] [mm] | Mean oedema thickness 4h [1] [mm] | Mean oedema thickness 5h [1] [mm] | Mean oedema thickness 24h [1] [mm] | Mean oedema thickness 0h [1] [mm] | Average oedema inhibition% [1] [%] | IC50 [6] [µM] | Average Ulcer number [7] | Lesion Incidence (%) [7] [%] | Number of rats with ulcer [7] | also measured
31.5 ± 1.08 | 29.7 ± 1.07 | 75.35 ± 0.1 | 15.42 ± 0.06 | 12.68 ± 0.11 | 0.04 ± 0.08 | 317.00 |  | CN1c2ccccc2C(=O)N(NC(=O)Cc2c[nH]c3ccccc23)C1c1ccc(Cl)cc1 (stereo not shown) [4a, N-(2-(4-chlorophenyl)-1-methyl-4-oxo-1,4-dihydroquinazolin-3(2H)-yl)-2-(1H-indol-3-yl)acetamide] | 2.67 ± 0.24 | 2.90 ± 0.33 | 2.14 ± 0.25 | 2.04 ± 0.24 | 1.39 ± 0.06 | 0.54 ± 0.21 | 0.00 ± 0.00 | 33.40 | 137.3 ± 0.08 | 1.6 | 60 | 3 | 
13 ± 1.36 | 16.2 ± 1.3 | > 150 | > 150 | 15.4 ± 0.17 | 0.04 | 359.74 | 235 to 240 | O=C(CSc1nc2ccccc2c(=O)n1NC(=O)Cc1ccccc1)NNC(=O)c1ccccc1 [14c, N-(2-((2-(2-benzoylhydrazinyl)-2-oxoethyl)thio)-4-oxoquinazolin-3(4H)-yl)-2-phenylacetamide] | 3.02 ± 0.35 | 2.89 ± 0.13 | 2.42 ± 0.18 | 2.37 ± 0.19 | 2.34 ± 0.23 | 0.57 ± 0.09 | 0.00 ± 0.00 | 31.86 | > 150 | 0.8 | 40 | 2 | Ulcer Index (UI) [7]: 5.3
 |  | 53.77 ± 0.05 | 5.82 ± 0.38 |  |  |  |  | Cc1ccc(-c2cc(C(F)(F)F)nn2-c2ccc(S(N)(=O)=O)cc2)cc1 [Celecoxib, reference compound] | 1.27 ± 0.07 | 1.51 ± 0.07 | 1.49 ± 0.14 | 1.39 ± 0.12 | 1.19 ± 0.08 | 0.53 ± 0.12 | 0.00 ± 0.00 | 47.60 | 51.36 ± 0.04 |  |  |  | Number of writhes [10]: 29.20 writhes; Average Ulcer number [11]: 0.2; Lesion Incidence (%) [11]: 20%; Number of rats with ulcer [11]: 1
32.2 ± 1.32 | 24.5 ± 2.06 | > 150 | 66.67 ± 0.07 | 6.93 ± 0.15 | 0.07 | 99.00 | 239 to 243 | CN1c2ccccc2C(=O)N(NC(=O)Cc2c[nH]c3ccccc23)C1c1ccc([N+](=O)[O-])cc1 (stereo not shown) [4b, 2-(1 h-indol-3-yl)-N-(1-methyl-2-(4-nitrophenyl)-4-oxo-1,4dihydroquinazolin-3(2H)-yl)acetamide] | 1.39 ± 0.09 | 1.89 ± 0.25 | 1.70 ± 0.17 | 1.14 ± 0.22 | 1.42 ± 0.28 | 0.16 ± 0.08 | 0.00 ± 0.00 | 49.47 | > 150 | 0.8 | 20 | 1 | Ulcer Index (UI) [7]: 3
